Laboratory results reported in paper PMC5127577, “Biochemical Characterization of Glutamate Racemase—A New Candidate Drug Target against Burkholderia cenocepacia Infections” (PLoS ONE, 2016).
Where two headings read alike, the source gives them in different places.

Legend:
[1] = system: B. cenocepacia J2315; assay: Minimal Inhibitory Concentration, 2-fold microdilution, resazurin method; type: cell-based, Burkholderia cenocepacia J2315; details: planktonic cells, 8 to 1024 μg/ml tested, two days 37°C
[2] = biological target: T1, B. cenocepacia J2315 glutamate racemase (BcGR) (Burkholderia cenocepacia, UniProt B4EEM8); assay: BcGR enzymatic activity inhibition, spectrophotometric coupled assay (L-glutamate dehydrogenase/diaphorase); details: for BcGR inhibition in screening: compound 100 μM; for inhibitory effect in the presence of EDTA: excess of EDTA; for mode of inhibition: steady state kinetics, D-Glu 5–50 mM, compound 0–100 μM
T1 sequence (B4EEM8 1-285): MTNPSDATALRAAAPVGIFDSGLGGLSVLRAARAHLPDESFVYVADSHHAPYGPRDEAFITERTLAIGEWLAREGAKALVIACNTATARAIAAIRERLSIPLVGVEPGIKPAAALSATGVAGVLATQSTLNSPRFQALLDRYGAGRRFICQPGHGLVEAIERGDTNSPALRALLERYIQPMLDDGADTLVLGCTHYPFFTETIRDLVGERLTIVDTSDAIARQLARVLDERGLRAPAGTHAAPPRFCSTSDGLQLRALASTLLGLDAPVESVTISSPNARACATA

[3] = biological target: GR from B. subtilis; details: cited from earlier work
[4] = biological target: GR from B. anthracis; details: cited from earlier work

Compound	MIC (concentration necessary to inhibit growth) [1]	IC50 ([2]; 20 mM D-Glu, 37°C, pH 8.0) [µM]	BcGR inhibition in screening ([2]; 20 mM D-Glu)	inhibitory effect in the presence of EDTA [2]	mode of inhibition [2]	Ki [3] [µM]	other results
bis(2,4-bis(trichloromethyl)-1,3,5-triazapentadienato)-zinc(II) complex [(1)]	at least 512 μg/ml	35.3 ± 4.9	almost completely inhibit	could be observed also in the presence of EDTA	non-competitive	–	–
tris(2,4-bis(trichloromethyl)-1,3,5-triazapentadienate)-Mn(III) complex [(2)]	at least 512 μg/ml	10 ± 0.8	almost completely inhibit	could be observed also in the presence of EDTA	non-competitive	–	–
O=S(=O)(O)c1nc2ccccc2[nH]1 [1-H-benzimidazole-2-sulfonic acid, reference compound]	–	–	did not show any inhibition	–	–	9	–
O=C(O)c1cccc(C(=O)O)n1 [dipicolinic acid]	–	–	–	–	–	2700	Ki ([4]; non-competitive inhibitor): 92 µM; IC50 [2]: 150 ± 30 µM
N[C@H](CC(Cc1ccccc1)C(=O)O)C(=O)O (stereo partly drawn) [(2R)-2-amino-4-benzylpentanedioic, (2R)-2-amino-4-benzylpentanedioic acid, reference compound]	–	–	did not show any inhibition	–	–	–	–
O=S(=O)(O)c1ccc(O)c(S(=O)(=O)O)c1 [4-hydroxybenzene-1,3-disulfonate, reference compound]	–	–	did not show any inhibition	–	–	–	Ki [4]: 59 µM
